Results from patent US20220372017A1, “HCK DEGRADERS AND USES THEREOF” (DANA-FARBER CANCER INSTITUTE, INC., priority 2019, published 2022).

Tests used:
Format in all cases: cell-based
HCK = molecular target: T1, HCK (Homo sapiens, UniProt P08631); assay: Western blot protein degradation assessment, HCK
T1 construct: following treatment of MYD88 mutated BCWM.1 cells; endogenous in cells; host or cells: BCWM.1 WM cells (parental and vector/BTK-WT/BTK-C481S transduced); TMD8 ABC-DLBCL cells (transduced)
Procedure: (§1) SK-6-1 was used as a degrader control compound.
(§2) SK-6-1 was used as a degrader control compound. […] “ABC-DLBCL” is activated B-cell (ABC) lymphoma, diffuse large B-cell lymphoma (DLBCL).
(§3) Western blots were performed for the detection of protein degradation following the cell treatments with HCK degraders using antibodies for HCK (Cell Signaling), BTK (Cell Signaling) or Phospho-BTK (Tyr223) (Abcam). GAPDH was used for determination of protein loading.

BTK [1] = molecular target: T2, BTK (Homo sapiens, UniProt Q06187); assay: Western blot protein degradation assessment, BTK; settings: MYD88 mutated BCWM.1 cells, 6 hours, Western blot (FIG. 4)
T2 construct: following treatment of MYD88 mutated BCWM.1 cells; endogenous in cells
T2 sequence (Q06187 2-659): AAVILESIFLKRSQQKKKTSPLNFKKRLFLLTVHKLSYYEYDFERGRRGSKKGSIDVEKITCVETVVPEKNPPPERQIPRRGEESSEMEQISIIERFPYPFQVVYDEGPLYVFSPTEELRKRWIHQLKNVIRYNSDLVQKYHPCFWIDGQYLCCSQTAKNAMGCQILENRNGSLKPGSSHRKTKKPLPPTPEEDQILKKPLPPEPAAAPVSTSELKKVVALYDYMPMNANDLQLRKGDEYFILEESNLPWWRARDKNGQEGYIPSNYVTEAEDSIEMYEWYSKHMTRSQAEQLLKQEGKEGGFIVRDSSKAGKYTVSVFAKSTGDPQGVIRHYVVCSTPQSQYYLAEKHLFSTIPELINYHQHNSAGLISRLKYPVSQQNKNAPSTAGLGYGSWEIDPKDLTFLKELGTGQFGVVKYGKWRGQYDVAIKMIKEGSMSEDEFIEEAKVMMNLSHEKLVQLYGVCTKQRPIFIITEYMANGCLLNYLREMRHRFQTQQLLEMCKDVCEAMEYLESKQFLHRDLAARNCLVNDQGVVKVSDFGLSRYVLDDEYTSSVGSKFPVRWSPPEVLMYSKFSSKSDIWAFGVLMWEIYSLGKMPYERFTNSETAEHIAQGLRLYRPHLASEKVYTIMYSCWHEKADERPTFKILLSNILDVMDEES
Procedure: as §1, §2, §3

BTK [2] = assay: Western blot protein degradation assessment, BTK; settings: vector only, BTK^WT or BTK^C481S transduced TMD8 ABC-DLBCL cells, 6 hours (FIG. 6)
Procedure: as §1, §2, §3

BTK [3] = molecular target: T3, BTK (Homo sapiens, UniProt Q06187, C481S); assay: Western blot protein degradation assessment, BTK; settings: BTK^C481S mutant transduced BCWM.1 WM cells, 6 hours (FIG. 5)
T3 construct: following treatment of MYD88 mutated BCWM.1 cells; endogenous in cells
T3 sequence (Q06187 2-659 C481S): as the sequence (Q06187 2-659) above, with C480S counted along it
Procedure: as §1, §2, §3

Phospho-BTK (Tyr223) = assay: Western blot, Phospho-BTK (Tyr223); settings: vector only
Procedure: as §1, §2, §3

LATS1 = molecular target: T4, LATS1 (Homo sapiens, UniProt O95835); assay: Proteomics, degradation of target kinases in MOLT4 cells: LATS1; settings: cell line MOLT4 (FIGS. 7A-7B)
T4 construct: proteomics data on the degradation of target kinases in cell line MOLT4; endogenous in cells; host or cells: MOLT4
T4 sequence (O95835 1-1130): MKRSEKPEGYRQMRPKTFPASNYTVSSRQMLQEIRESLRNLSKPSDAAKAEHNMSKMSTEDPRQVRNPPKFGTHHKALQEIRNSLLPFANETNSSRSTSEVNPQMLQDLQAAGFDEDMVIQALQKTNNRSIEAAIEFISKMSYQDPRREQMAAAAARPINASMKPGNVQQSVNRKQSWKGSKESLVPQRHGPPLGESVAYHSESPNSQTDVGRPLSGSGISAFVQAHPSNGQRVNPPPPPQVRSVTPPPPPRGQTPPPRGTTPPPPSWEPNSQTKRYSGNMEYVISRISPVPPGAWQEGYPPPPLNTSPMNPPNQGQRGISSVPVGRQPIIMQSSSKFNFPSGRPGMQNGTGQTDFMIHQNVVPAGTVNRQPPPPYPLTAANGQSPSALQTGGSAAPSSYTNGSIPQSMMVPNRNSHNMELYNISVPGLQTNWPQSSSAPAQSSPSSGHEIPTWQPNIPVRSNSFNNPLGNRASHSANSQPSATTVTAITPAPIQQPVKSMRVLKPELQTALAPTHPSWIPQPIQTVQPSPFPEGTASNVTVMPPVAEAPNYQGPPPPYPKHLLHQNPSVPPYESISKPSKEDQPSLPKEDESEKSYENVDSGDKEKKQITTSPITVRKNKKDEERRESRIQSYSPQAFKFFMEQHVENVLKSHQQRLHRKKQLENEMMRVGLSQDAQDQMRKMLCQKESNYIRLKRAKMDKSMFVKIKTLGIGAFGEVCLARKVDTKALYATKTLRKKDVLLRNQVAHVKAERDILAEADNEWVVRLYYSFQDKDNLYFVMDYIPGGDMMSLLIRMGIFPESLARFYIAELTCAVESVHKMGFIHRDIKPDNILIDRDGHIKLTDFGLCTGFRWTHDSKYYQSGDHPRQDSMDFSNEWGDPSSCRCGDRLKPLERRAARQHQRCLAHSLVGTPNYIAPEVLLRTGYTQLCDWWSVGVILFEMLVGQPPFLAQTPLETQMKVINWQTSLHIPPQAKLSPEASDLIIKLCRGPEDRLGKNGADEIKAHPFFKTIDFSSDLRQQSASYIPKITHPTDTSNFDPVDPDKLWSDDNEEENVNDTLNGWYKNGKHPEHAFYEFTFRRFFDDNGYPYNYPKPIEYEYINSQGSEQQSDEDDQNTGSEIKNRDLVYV
Text: (§4) FIGS. 7A-7B show proteomics data on the degradation of target kinases in cell line MOLT4 (human T lymphoblast; acute lymphoblastic leukemia) using treatment with exemplary compounds SB1-G-181 and SB1-G-200. FIG. 7A indicates in the bottom left corner the exemplary kinase targets (FYN, SRC, BLK, LCK, CSK, ABL1, ABL2, LIMK1, LATS1) in cell line MOLT4 which were degraded by exemplary compound SB1-G-181. FIG. 7B indicates in the bottom left corner the exemplary kinase targets (FYN, SRC, BLK, LCK, CSK, ABL1, ABL2, LIMK1, LATS1) in cell line MOLT4 which were degraded by exemplary compound SB1-G-200.

LIMK1 = molecular target: T5, LIMK1 (Homo sapiens, UniProt P53667); assay: Proteomics, degradation of target kinases in MOLT4 cells: LIMK1; settings: cell line MOLT4 (FIGS. 7A-7B)
T5 construct: proteomics data on the degradation of target kinases in cell line MOLT4; endogenous in cells; host or cells: MOLT4
Text: as §4

ABL1 = molecular target: T6, ABL1 (Homo sapiens, UniProt P00519); assay: Proteomics, degradation of target kinases in MOLT4 cells: ABL1; settings: cell line MOLT4 (FIGS. 7A-7B)
T6 construct: proteomics data on the degradation of target kinases in cell line MOLT4; endogenous in cells; host or cells: MOLT4
T6 sequence (P00519 whole entry): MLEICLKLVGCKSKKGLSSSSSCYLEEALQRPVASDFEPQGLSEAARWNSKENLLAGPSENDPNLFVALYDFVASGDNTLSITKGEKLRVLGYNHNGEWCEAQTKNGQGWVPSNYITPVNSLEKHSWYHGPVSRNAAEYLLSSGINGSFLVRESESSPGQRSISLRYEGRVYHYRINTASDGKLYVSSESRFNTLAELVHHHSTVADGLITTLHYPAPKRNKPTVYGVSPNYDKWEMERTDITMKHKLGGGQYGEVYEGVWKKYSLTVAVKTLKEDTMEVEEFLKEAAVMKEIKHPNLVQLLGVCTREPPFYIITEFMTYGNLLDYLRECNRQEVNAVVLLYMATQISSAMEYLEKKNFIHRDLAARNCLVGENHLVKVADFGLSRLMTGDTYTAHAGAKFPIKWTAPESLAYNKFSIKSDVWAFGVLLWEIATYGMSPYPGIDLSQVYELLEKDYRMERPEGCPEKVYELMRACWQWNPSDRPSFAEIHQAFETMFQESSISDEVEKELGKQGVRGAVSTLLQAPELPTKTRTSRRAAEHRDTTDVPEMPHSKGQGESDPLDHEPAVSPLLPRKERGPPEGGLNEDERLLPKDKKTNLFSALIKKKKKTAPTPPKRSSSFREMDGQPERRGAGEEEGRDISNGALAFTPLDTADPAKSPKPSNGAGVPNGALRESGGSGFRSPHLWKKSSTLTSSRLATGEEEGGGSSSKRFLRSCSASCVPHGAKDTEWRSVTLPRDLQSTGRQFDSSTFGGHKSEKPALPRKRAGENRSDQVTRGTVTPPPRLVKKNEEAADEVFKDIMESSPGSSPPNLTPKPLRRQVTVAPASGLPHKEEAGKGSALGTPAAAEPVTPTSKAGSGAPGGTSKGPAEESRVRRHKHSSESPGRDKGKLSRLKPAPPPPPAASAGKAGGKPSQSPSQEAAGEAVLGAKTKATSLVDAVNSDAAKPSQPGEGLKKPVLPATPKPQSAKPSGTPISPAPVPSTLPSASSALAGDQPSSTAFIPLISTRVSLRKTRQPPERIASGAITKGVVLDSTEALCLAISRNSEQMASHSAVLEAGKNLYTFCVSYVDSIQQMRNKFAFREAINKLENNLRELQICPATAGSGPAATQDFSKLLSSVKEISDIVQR
Text: as §4

BLK = molecular target: T7, BLK (Homo sapiens, UniProt P51451); assay: Proteomics, degradation of target kinases in MOLT4 cells: BLK; settings: cell line MOLT4 (FIGS. 7A-7B)
T7 construct: proteomics data on the degradation of target kinases in cell line MOLT4; endogenous in cells; host or cells: MOLT4
T7 sequence (P51451 whole entry): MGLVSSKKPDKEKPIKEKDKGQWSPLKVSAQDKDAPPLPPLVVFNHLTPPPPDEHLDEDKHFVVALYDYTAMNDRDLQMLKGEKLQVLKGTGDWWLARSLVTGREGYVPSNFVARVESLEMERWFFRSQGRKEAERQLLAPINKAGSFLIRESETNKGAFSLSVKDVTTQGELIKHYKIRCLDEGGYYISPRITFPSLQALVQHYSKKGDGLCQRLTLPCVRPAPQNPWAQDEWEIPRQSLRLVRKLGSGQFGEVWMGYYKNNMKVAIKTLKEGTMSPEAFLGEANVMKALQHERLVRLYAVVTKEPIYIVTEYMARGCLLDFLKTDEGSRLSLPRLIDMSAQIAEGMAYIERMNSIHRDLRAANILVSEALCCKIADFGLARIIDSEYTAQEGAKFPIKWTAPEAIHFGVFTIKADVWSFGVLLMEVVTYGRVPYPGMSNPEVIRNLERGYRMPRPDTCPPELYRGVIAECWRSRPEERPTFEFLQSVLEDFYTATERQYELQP
Text: as §4

LCK = molecular target: T8, LCK (Homo sapiens, UniProt P06239); assay: Proteomics, degradation of target kinases in MOLT4 cells: LCK; settings: cell line MOLT4 (FIGS. 7A-7B)
T8 construct: proteomics data on the degradation of target kinases in cell line MOLT4; endogenous in cells; host or cells: MOLT4
T8 sequence (P06239 whole entry): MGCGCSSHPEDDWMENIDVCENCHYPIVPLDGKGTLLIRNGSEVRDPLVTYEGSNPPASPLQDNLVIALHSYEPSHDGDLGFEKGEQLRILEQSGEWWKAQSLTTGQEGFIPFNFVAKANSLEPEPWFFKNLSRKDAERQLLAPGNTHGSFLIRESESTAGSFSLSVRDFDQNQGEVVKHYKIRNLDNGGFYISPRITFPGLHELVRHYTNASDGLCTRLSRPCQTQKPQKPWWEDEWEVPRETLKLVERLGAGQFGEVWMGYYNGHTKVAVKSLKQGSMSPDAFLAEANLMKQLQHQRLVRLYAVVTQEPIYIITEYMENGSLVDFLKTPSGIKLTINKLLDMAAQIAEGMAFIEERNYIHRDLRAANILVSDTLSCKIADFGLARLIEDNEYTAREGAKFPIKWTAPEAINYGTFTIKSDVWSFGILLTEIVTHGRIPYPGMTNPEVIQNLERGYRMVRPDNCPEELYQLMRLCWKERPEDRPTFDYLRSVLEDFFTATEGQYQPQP
Text: as §4

CSK = molecular target: T9, CSK (Homo sapiens, UniProt P41240); assay: Proteomics, degradation of target kinases in MOLT4 cells: CSK; settings: cell line MOLT4 (FIGS. 7A-7B)
T9 construct: proteomics data on the degradation of target kinases in cell line MOLT4; endogenous in cells; host or cells: MOLT4
T9 sequence (P41240 whole entry): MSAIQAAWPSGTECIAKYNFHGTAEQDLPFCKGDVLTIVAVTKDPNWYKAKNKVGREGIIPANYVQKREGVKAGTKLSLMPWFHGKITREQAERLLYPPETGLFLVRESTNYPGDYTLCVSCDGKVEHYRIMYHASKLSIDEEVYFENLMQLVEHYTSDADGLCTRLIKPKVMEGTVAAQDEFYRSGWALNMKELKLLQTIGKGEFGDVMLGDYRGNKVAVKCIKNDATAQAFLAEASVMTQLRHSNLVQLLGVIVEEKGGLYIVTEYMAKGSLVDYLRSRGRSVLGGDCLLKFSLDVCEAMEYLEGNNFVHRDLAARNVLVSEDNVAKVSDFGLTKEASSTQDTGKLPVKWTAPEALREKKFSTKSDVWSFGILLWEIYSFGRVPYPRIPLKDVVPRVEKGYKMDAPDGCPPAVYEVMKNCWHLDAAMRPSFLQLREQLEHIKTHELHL
Text: as §4

ABL2 = molecular target: T10, ABL2 (Homo sapiens, UniProt P42684); assay: Proteomics, degradation of target kinases in MOLT4 cells: ABL2; settings: cell line MOLT4 (FIGS. 7A-7B)
T10 construct: proteomics data on the degradation of target kinases in cell line MOLT4; endogenous in cells; host or cells: MOLT4
T10 sequence (P42684 whole entry): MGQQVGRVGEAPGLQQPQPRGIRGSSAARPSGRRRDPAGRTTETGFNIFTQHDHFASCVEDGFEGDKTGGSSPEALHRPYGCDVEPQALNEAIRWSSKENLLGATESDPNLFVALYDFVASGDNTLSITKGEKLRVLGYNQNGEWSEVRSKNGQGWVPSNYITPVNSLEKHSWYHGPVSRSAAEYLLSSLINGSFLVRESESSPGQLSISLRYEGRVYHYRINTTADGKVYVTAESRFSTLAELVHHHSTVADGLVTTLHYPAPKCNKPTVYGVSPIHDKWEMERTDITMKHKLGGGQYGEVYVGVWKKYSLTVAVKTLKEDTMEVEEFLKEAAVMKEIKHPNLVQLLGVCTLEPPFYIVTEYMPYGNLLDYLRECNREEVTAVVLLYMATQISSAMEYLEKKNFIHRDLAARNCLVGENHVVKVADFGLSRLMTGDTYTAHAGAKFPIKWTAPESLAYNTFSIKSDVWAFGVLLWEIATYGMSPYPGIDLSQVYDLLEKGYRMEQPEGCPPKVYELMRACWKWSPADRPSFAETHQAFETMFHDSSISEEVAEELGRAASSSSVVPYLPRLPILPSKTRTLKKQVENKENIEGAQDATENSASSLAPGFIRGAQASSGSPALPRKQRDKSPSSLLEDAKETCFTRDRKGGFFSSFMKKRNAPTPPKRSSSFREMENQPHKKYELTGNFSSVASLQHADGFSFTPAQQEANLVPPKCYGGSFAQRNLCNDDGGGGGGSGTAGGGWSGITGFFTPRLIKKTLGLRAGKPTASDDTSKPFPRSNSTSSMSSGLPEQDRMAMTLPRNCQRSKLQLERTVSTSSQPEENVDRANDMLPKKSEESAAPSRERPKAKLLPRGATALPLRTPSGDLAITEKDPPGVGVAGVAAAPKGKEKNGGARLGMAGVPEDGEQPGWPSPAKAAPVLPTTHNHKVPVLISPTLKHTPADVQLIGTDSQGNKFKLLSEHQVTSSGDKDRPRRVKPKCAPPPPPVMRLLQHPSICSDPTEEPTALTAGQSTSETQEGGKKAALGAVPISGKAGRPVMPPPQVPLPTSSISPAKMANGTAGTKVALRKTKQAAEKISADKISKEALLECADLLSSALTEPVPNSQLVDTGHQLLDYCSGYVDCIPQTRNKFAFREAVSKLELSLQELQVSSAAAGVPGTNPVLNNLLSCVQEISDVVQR
Text: as §4

SRC = molecular target: T11, SRC (Homo sapiens, UniProt P12931); assay: Proteomics, degradation of target kinases in MOLT4 cells: SRC; settings: cell line MOLT4 (FIGS. 7A-7B)
T11 construct: proteomics data on the degradation of target kinases in cell line MOLT4; endogenous in cells; host or cells: MOLT4
Text: as §4

FYN = molecular target: T12, FYN (Homo sapiens, UniProt P06241); assay: Proteomics, degradation of target kinases in MOLT4 cells: FYN; settings: cell line MOLT4 (FIGS. 7A-7B)
T12 construct: proteomics data on the degradation of target kinases in cell line MOLT4; endogenous in cells; host or cells: MOLT4
T12 sequence (P06241 whole entry): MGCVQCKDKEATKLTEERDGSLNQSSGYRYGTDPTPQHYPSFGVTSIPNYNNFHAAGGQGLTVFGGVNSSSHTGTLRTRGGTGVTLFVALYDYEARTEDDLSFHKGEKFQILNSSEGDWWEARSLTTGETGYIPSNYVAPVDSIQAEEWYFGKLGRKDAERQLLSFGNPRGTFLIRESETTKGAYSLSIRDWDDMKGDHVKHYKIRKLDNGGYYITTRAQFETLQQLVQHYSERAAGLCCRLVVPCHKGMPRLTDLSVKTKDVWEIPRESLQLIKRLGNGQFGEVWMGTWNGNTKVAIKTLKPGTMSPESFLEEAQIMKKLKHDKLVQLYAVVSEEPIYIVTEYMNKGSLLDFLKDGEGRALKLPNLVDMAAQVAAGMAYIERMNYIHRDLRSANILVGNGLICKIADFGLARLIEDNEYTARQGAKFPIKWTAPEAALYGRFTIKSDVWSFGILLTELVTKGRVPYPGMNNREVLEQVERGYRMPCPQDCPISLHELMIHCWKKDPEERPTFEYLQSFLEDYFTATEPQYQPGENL
Text: as §4

[4] = MYD88 mutated BCWM.1 cells, 6 hours, Western blot (FIG. 4)

Structure (SMILES)	degradation of HCK (HCK; [4])	degradation of BTK (BTK [1])	degradation of HCK (HCK; vector only, BTK^WT or BTK^C481S transduced BCWM.1 WM cells, 6 hours (FIG. 5))	degradation of HCK (HCK; vector only, BTK^WT or BTK^C481S transduced TMD8 ABC-DLBCL cells, 6 hours (FIG. 6))	degradation of BTK (BTK [2])	degradation of BTK (BTK [3])	BTK phosphorylation at Tyr-223 (Phospho-BTK (Tyr223); BTK^WT or BTK^C481S transduced BCWM.1 WM cells, 6 hours (FIG. 5))	BTK phosphorylation at Tyr-223 (Phospho-BTK (Tyr223); BTK^WT or BTK^C481S transduced TMD8 ABC-DLBCL cells, 6 hours (FIG. 6))	degradation of LATS1 (proteomics) (LATS1)	degradation of LIMK1 (proteomics) (LIMK1)	degradation of ABL1 (proteomics) (ABL1)	degradation of BLK (proteomics) (BLK)	degradation of LCK (proteomics) (LCK)	degradation of CSK (proteomics) (CSK)	degradation of ABL2 (proteomics) (ABL2)	degradation of SRC (proteomics) (SRC)	degradation of FYN (proteomics) (FYN)
Nc1ncnc2c1c(-c1ccc(Oc3ccccc3)cc1)nn2C1CCC(N2CCN(CCOCCNC(=O)CNc3cccc4c3C(=O)N(C3CCC(=O)NC3=O)C4=O)CC2)CC1 (stereo not drawn) [SB1-G-181-P1]	effective degradation	effective degradation	–	–	–	–	–	–	–	–	–	–	–	–	–	–	–
Nc1ncnc2c1c(-c1ccc(Oc3ccccc3)cc1)nn2[C@H]1CC[C@H](N2CCN(CCOCCOCCOCCNC(=O)CNc3cccc4c3C(=O)N(C3CCC(=O)NC3=O)C4=O)CC2)CC1 (stereo partly drawn) [SB1-G-182-P1]	effective degradation	effective degradation	–	–	–	–	–	–	–	–	–	–	–	–	–	–	–
Nc1ncnc2c1c(-c1ccc(Oc3ccccc3)cc1)nn2[C@H]1CC[C@H](N2CCN(CCOCCOCCNC(=O)CNc3cccc4c3C(=O)N(C3CCC(=O)NC3=O)C4=O)CC2)CC1 (stereo partly drawn) [SB1-G-185-P1]	effective degradation	effective degradation	effective degradation	effective degradation	effective degradation	diminished	blocked	blocked	–	–	–	–	–	–	–	–	–
Nc1ncnc2c1c(-c1ccc(Oc3ccccc3)cc1)nn2[C@H]1CC[C@H](N2CCN(CCOCCNC(=O)CNc3cccc4c3C(=O)N(C3CCC(=O)NC3=O)C4=O)CC2)CC1 (stereo partly drawn) [SB1-G-181, N-(2-(2-(4-((1r,4r)-4-(4-amino-3-(4-phenoxyphenyl)-1H-pyrazolo[3,4-d]pyrimidin-1-yl)cyclohexyl)piperazin-1-yl)ethoxy)ethyl)-2-(2-(2,6-dioxopiperidin-3-yl)-1,3-dioxoisoindolin-4-ylamino)acetamide]	–	–	–	–	–	–	–	–	degraded	degraded	degraded	degraded	degraded	degraded	degraded	degraded	degraded
Nc1ncnc2c1c(-c1ccc(Oc3ccccc3)cc1)nn2[C@H]1CC[C@H](N2CCN(CCCCCCNC(=O)COc3cccc4c3C(=O)N(C3CCC(=O)NC3=O)C4=O)CC2)CC1 (stereo partly drawn) [SB1-G-200]	–	–	–	–	–	–	–	–	degraded	degraded	degraded	degraded	degraded	degraded	degraded	degraded	degraded
